According to article doi:10.1101/2025.09.24.678246 (bioRxiv, 2025):
pIC50: −log10 of the molar value. ≈ marks a conversion by molar mass, not a printed value. Where “and” joins values, the source holds several entries; their conditions need not be identical. Equal values may be shown once. Read-outs that look alike come from different tables or passages of the source.

Assays:
BioA = BioA (Mycobacterium tuberculosis, UniProt P9WQ81); assay: BioA inhibition assay (coupled BioA/BioD fluorescence displacement, IC50); format: biochemical
M. africanum = assay: MIC screening against M. africanum; format: cell-based; details: Mycobacterium tuberculosis, MTBC
[1] = p.o. 25 mg/kg, CD-1 mice
Mtb = assay: Membrane fluidity measurements (laurdan GP); format: cell-based, Mycobacterium tuberculosis; details: 150 nM
HepG2 = details: for Growth compared to DMSO control (%): HepG2 cell
A. baumannii ATCC 17978 = assay: MIC screening against Gram-negative pathogens: A. baumannii
Experimental: (§1) MIC measurements were based on a method previously described[6]. Overnight liquid cultures of E. coli BW, E. coli C0244, A. baumannii ATCC 17978, K. pneumoniae ATCC 43816, P. aeruginosa PA01 and E. faecium ATCC 19434 strains were inoculated with a single colony from a freshly streaked agar plate of the corresponding bacterial strain and cultured in M9 minimal medium supplemented with amino acids[6]. The bacterial culture was prepared by washing 1 mL of overnight culture in PBS pH 7.4 (x3), then diluted to OD600 = 0.5 and used to inoculate 1:1000 in M9 minimal medium with amino acids in 96-well plates. Compounds were added to 96-well plates in two-fold serial dilutions. The plates were incubated stationary at 37 °C for 18 h, then OD600 was measured. […] The assay was performed in duplicate.

WT H37Rv = assay: Agar MIC of C48; format: cell-based; details: Mycobacterium tuberculosis, 504 h
Mtb H37Rv [2] = assay: microbe, parasite or virus in culture; format: cell-based, Mycobacterium tuberculosis; details: Mycobacterium tuberculosis, H37RV; biotin-free medium
E. coli = assay: MIC screening against Gram-negative pathogens: E. coli
Experimental: as §1

[3] = test system: ESKAPE panel of pathogens; assay: MIC screening against the ESKAPE panel (summary)
Experimental: as §1

E. faecium ATCC 19434 = assay: MIC screening: E. faecium
Experimental: as §1

Mtb H37Rv [4] = format: in vivo, BALB/c mice

Chain of BioA (P9WQ81 whole entry, looked up): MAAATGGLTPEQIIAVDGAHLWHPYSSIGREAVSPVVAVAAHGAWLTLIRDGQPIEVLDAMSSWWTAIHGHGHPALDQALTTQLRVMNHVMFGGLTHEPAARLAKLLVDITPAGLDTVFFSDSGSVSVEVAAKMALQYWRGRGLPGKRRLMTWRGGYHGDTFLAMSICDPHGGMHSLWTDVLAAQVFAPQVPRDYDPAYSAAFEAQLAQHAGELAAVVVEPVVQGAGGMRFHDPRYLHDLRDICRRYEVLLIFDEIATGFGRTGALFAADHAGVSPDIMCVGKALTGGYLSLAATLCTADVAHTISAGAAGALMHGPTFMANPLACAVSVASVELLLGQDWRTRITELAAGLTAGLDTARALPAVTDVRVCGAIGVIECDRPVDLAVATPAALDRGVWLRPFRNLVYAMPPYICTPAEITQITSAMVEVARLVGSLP

## O=C1CCc2cc(N3CCN(C(=O)c4ccc(F)c(Br)c4)CC3)ncc21 [C48]
BioA; 50 nM BioA
  pIC50: 7.47
BioA; C48 2.60123 nM, 50 nM BioA
  activity: 100% and 105%
  activity at 0.00260123 µM: 99.5%
BioA; C48 3.90184 nM, 50 nM BioA
  activity: 98% and 101%
  activity at 0.00390184 µM: 95.4%
BioA; C48 5.85277 nM, 50 nM BioA
  activity: 98.6% and 97%
  activity at 0.00585277 µM: 96.2%
BioA; C48 8.77915 nM, 50 nM BioA
  activity: 94.6% and 97.2%
  activity at 0.00877915 µM: 94%
BioA; C48 13.1687 nM, 50 nM BioA
  activity: 90.9% and 91.4%
  activity at 0.0131687 µM: 90.4%
BioA; C48 19.7531 nM, 50 nM BioA
  activity: 81.3% and 85.6%
  activity at 0.0197531 µM: 80.3%
BioA; C48 29.6296 nM, 50 nM BioA
  activity: 64.4% and 66.5%
  activity at 0.0296296 µM: 63.7%
BioA; C48 44.4444 nM, 50 nM BioA
  activity: 19.1% and 25.7%
  activity at 0.0444444 µM: 20.9%
BioA; C48 66.6667 nM, 50 nM BioA
  activity: 0.926% and 1.11%
  activity at 0.0666667 µM: 1.35%
BioA; read-out: Vi/Vo %
  remaining activity at 0.00114183 µM: 103%
  remaining activity at 0.00171274 µM: 106%
  remaining activity at 0.00256912 µM: 106%
  remaining activity at 0.00385367 µM: 97%
  remaining activity at 0.00578051 µM: 96.5%
  remaining activity at 0.00867076 µM: 89.3%
  remaining activity at 0.0130061 µM: 88.9%
  remaining activity at 0.0195092 µM: 78.8%
  remaining activity at 0.0292638 µM: 60.8%
  remaining activity at 0.0438957 µM: 42%
  remaining activity at 0.0658436 µM: 0%
  remaining activity at 0.0987654 µM: 0%
  remaining activity at 0.148148 µM: 0%
  remaining activity at 0.222222 µM: 0%
  remaining activity at 0.333333 µM: 0%
M. africanum
  MIC: 0.012 µM (≈ 0.00502 µg/mL)
[1]; 0 h
  plasma concentration: 0
[1]; 0.5 h, 25 mg/kg
  plasma concentration: 10400 and 11300 and 10800
[1]; 1 h, 25 mg/kg
  plasma concentration: 15700 and 11100 and 13300
[1]; 3 h, 25 mg/kg
  plasma concentration: 12000 and 11100 and 12600
[1]; 5 h, 25 mg/kg
  plasma concentration: 14500 and 12000 and 8860
[1]; 7 h, 25 mg/kg
  plasma concentration: 9480 and 6360 and 8380
Mtb; +Biotin
  Laurdan GP: 0.2273 and 0.2244 and 0.2183
Mtb; -Biotin
  Laurdan GP: 0.2797 and 0.2817 and 0.2774
Mtb; without biotin
  laurdan GP change: increase
HepG2; HepG2 and HT-29 versus Mtb
  therapeutic index (IC50/MIC50): greater than 10,000
HepG2; 3.13 μM, 48 h
  Growth compared to DMSO control (%): 106.559% and 101.297% and 106.056%
HepG2; 6.25 μM, 48 h
  Growth compared to DMSO control (%): 105.369% and 100.246%
HepG2; 12.5 μM, 48 h
  Growth compared to DMSO control (%): 104.304% and 99.8833%
HepG2; 25 μM, 48 h
  Growth compared to DMSO control (%): 105.369% and 101.144%
HepG2; 50 μM, 48 h
  Growth compared to DMSO control (%): 106.056% and 100.625% and 106.559%
HepG2; 100 μM, 48 h
  Growth compared to DMSO control (%): 110.419% and 100.81% and 101.702%
HepG2; concentrations up to 100 μM, 48 h
  cytotoxicity toward HepG2: no cytotoxicity
A. baumannii ATCC 17978
  MIC: inactive
WT H37Rv
  MIC: 0.8 µM
Mtb H37Rv [2]
  MIC50: 0.093 µM (≈ 0.0389 µg/mL)
E. coli; E. coli BW
  MIC: inactive
E. coli; E. coli C0244
  MIC: inactive
[3]
  activity against the entire ESKAPE panel: inactive
E. faecium ATCC 19434
  MIC: inactive
Mtb H37Rv [4]; 100mg/kg C48 p.o., Day 42, standard acute model, BALB/c, per mouse
  spleen CFU: 1075 CFU and 3750 CFU and 6400 CFU and 18666.7 CFU and 6650 CFU and 6725 CFU
Mtb H37Rv [4]; 100 mg/kg, day 14 (values identical to Vehicle Control: baseline)
  bacterial burden per mouse, Fig. 5B: 16500 and 43500 and 12750 and 24500 and 14500
